The target of data set [1] is T1, human NTCP (Homo sapiens, UniProt Q14973).
T1 sequence (Q14973 1-349): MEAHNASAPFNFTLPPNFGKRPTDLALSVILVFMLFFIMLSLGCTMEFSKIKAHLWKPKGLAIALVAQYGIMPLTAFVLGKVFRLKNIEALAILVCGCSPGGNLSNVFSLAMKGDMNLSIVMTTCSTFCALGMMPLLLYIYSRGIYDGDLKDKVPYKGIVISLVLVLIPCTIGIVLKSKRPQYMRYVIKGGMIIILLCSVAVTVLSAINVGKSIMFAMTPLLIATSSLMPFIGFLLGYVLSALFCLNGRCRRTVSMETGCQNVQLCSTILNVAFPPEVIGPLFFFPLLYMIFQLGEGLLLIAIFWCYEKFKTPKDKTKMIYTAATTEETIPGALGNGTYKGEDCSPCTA
Briefly: Screening taurocholate uptake assay (96-well, [14C]taurocholate, 10 µM drug).

The target in data set [2] is T1, human NTCP. Briefly: Myrcludex B-FITC binding by confocal microscopy in U2OS-HA-hNTCP cells. The arrangement: HA; expressed in transfected cells.
In the next data set the target is T2, mouse NTCP (Mus musculus, UniProt O08705).
T2 construct: expressed in transfected cells; host or cells: U2OS (transient transfection, PEI)
T2 sequence (O08705 1-362): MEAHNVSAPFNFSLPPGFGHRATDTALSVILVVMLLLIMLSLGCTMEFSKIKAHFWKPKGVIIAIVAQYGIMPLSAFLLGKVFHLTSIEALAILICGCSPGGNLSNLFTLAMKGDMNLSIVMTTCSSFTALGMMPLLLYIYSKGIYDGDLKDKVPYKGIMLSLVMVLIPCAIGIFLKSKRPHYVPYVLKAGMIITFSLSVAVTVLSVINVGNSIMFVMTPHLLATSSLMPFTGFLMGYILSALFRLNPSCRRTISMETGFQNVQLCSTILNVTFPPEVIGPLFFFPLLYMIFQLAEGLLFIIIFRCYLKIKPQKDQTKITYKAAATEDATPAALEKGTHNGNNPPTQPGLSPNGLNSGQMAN
Briefly: Taurocholate uptake in U2OS cells transiently transfected with mouse NTCP. Format: cell-based. The settings on record: at the calculated IC50 value for hNTCP. On the procedure:
(§1) U2OS and MDCK cells were grown in Dulbecco’s modified Eagle’s medium (DMEM, Sigma-Aldrich), supplemented with 10% FCS (Gibco), 1% L-glutamine (Lonza), and 1% penicillin/streptomycin (Lonza). […] Transient transfection of U2OS cells with mouse NTCP (mNTCP) was done with PEI reagent (Brunschwig, Basel, Switzerland). Shortly, U2OS cells were seeded one day prior to transfection in 24-well plates. On the day of transfection, 0.5 µg DNA was mixed with 100 µl unsupplemented DMEM and 3 µg/µl PEI. After 10–15 minute incubation at RT, 20 µl of the transfection mix was added to each 24-well. Transfected cells were used in further experiments 48–72 hours later. Cell lines were passaged twice a week at a confluence of 80%, and incubated in a humidified atmosphere of 37 °C + 5% CO2.
(§2) For MDCK or MDCK-hASBT cells 70.000 cells/well were plated in 24-well plates, followed by 24 hours 10 mM sodium butyrate (Sigma-Aldrich) stimulation the next day. Cells were used in the inhibition studies 24 hours (U2OS cell lines) or 48 hours (MDCK cell lines) later. Inhibition studies with mNTCP transiently transfected cells were conducted 48–72 hours after transfection.
(§3) Medium was aspirated from the wells and cells were washed once with 250 µL uptake buffer. Subsequently, cells were pre-incubated with drug in 150 µL uptake buffer for 10 minutes at 37 °C. Taurocholate uptake was initiated by addition of 100 µL uptake buffer containing taurocholate (final concentration 10 µM TC spiked with tritium-labeled TC) and cells were incubated for 2 minutes at 37 °C. Subsequently, cells were washed 4 times with ice-cold PBS and lysed with 0.05% SDS in water. Radioactivity was measured by liquid scintillation counting.

Data set [3] can be described thus: in vitro. The settings on record: human, U2OS-HA-hNTCP cells.
Data set [4] can be described thus: in vitro. The settings on record: human.
For data set [5] the following is noted: sulfasalazine 1 gram; ref 5 (supplement); cited from earlier work.
A further data set concerns HDV. Briefly: HDV infection of HepaRG cells (HDAg immunofluorescence). The following applies: HDAg positive cells, day 5; concentration-dependent. Format: cell-based, hepatitis delta virus.
Another data set addresses T3, human ASBT (Homo sapiens, UniProt Q12908).
T3 construct: expressed in transfected cells; gift of Paul Dawson; induced with sodium butyrate
T3 sequence (Q12908 1-348): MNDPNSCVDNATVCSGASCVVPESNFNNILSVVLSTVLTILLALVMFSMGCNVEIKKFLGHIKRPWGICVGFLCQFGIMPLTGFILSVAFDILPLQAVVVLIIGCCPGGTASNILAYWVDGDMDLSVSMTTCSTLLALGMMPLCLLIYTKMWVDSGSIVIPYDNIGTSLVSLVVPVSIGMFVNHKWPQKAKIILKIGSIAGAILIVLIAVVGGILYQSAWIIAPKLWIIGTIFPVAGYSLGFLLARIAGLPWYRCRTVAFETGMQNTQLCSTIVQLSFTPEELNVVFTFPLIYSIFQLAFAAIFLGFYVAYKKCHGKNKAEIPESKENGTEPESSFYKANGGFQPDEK
Briefly: Taurocholate uptake in MDCK-hASBT cells. In kind it is cell-based. The settings on record: compared with NTCP. As for the experimental part: as §1, §2, §3

The structures appear in SMILES notation. Values joined by “and” are separate entries in the source; they are usually repeats but may differ in a detail not shown here. Identical values can stand only once. “Also recorded” adds a separate entry of the source. Some results are limits rather than exact numbers.

As usually defined, the viability is a read-out of living cells in per cent, often relative to untreated cells.

For `O=C(O)c1cc(/N=N/c2ccc(S(=O)(=O)Nc3ccccn3)cc2)ccc1O` [Sulfasalazine], the Ranking score at human NTCP [1] (ranking over the functional and the binding screening assay) is on record as 34.8999. The compound also registered a B-score functional assay on human NTCP [1] (screening taurocholate uptake, 10 µM drug) of -3.903. At human NTCP [2] (co-administration with increasing amounts of drug), the “Myrcludex B-FITC fluorescence / binding to U2OS-HA-hNTCP cells (in words)” value is “reduced”. Also, at human NTCP [2] (confocal microscopy, 0.2 µM Myrcludex B-FITC, drug 1, 10, 100 µM, concentration at which binding inhibited minimally 50%), the “≥50% loss of Myrcludex B binding to hNTCP (concentration)” value is not below 1 µM. Moreover, the “HBV infection in HepaRG cells (in words)” value with HBV (HBeAg, HBsAg, HBcAg, concentration-dependent) is on record as “reduced HBV/HDV infection; also recorded: reduce”. In addition, the “concentration effective in reducing HBsAg” value with HBV (HepaRG cells infected with HBV, supernatant day 7 to 10) is on record as not below 50 µM. For the same compound, the “number of HBcAg positive stained cells” value with HBV (HepaRG cells, day 10 post HBV infection, 50 µM) was “mild reduction”. The “inhibition of mouse Ntcp-mediated taurocholate uptake compared with human NTCP” value at mouse NTCP was “inhibited similarly as human NTCP”. Moreover, the viability at 2 h, 1 µM stood at 98.1 ± 3% in “in vitro [3]” and 100 ± 6.9% in the data set “in vitro [4]”. For the same compound, the viability at 2 h, 10 µM came out at 90.6 ± 6.9% in the data set “in vitro [3]” and 101 ± 8.4% in “in vitro [4]”. Further, the viability at 2 h, 100 µM in “in vitro [3]” was found to be 85 ± 9.1%; in the data set “in vitro [4]”, 97.8 ± 8%. Also, the Expected serum concentration in data set [5] was 6 µg/ml and ~15 µM. In addition, the “HDV infection in HepaRG cells (in words)” value in the data set with HDV is on record as “reduced HBV/HDV infection; also recorded: reduce”. In addition, the “inhibition of ASBT-mediated taurocholate uptake” value at human ASBT is listed as “largely ineffective”; against human ASBT (listed as sulfasalazine), “Complete absence of ASBT inhibition”.

These data come from PMC5681660, “Reduced hepatitis B and D viral entry using clinically applied drugs as novel inhibitors of the bile acid transporter NTCP” (Scientific Reports, 2017).
